This is an account of results in patent US5554653A, “Inhibitors of HIV protease useful for the treatment of AIDS” (Eli Lilly and Company, priority 1992, dated 1996).

≈ marks a conversion by molar mass, not a printed value. Bounds are passed on as bounds.

For the assay, the target named is T1, HIV-1 protease (Human immunodeficiency virus type 1 group M subtype B, UniProt P04585).
T1 construct: Purified HIV-1 protease was obtained as described above; made in house; host or cells: E. coli K12 L507/pHP10D (NRRL B-18560)
As to the kind of experiment: biochemical. The class given is biochemical. The following applies: for IC50: read-out: Fluorescence Assay IC50 (converted); for IC8: read-out: Fluorescence Assay IC8; for IC45: read-out: Fluorescence Assay IC45. As for the experimental part:
C. Preparation of Protease Fraction
A culture of E. coli K12 L507/pHP10D was grown to mid-log phase at 32° C. in LB media containing 12.5 μg/ml tetracycline. The cultivation temperature was quickly elevated to 40° C. to induce gene expression, and the cells were allowed to grow for 2.5 hours at this temperature before the culture was quickly chilled on ice. The cells were centrifuged and the cell pellet was resuspended in 20 mL 50 mmol MES buffer (pH 6.0) containing 1 mmol EDTA, 1 mmol DTT, 1 mmol PMSF and 10% glycerol ("Buffer A"). Cells were lysed by sonication using a Fischer Model 300 Dismembrator and a microtip probe. Following centrifugation at 27,000×g, the supernatant was diluted to a total volume of 60 mL with Buffer A and loaded onto a 2.0×19 cm QAE-Sepharose column (1 mL/min, 4° C.), that had been equilibrated in Buffer A. The column was washed isocratically for 180 min and then eluted with a gradient eluent of 0-1.0M sodium chloride in Buffer A over 120 min. Enzymatic activity was measured by HPLC using the synthetic peptide SQNYPIV as described in Margolin et al., Biochem. Biophys. Res. Commun., 167, 554-560 (1990); the production of the p1 peptide (SQNY) was measured.
The active fractions were combined, made 1.2M in ammonium sulfate, and applied to a 2.0×18 cm hexyl agarose column that had been equilibrated in Buffer A containing 1.2M ammonium sulfate. The sample was loaded at a flow rate of 1 mL/min at 4° C., washed with the equilibration buffer for 240 min (1 mL/min) and then eluted using a reverse linear gradient of 1.2-0M ammonium sulfate in Buffer A for 120 min at the same flow rate. The column was then washed isocratically in Buffer A for 120 min.
The active fractions were combined, concentrated to 10 mL using an Amicon stirred cell with a YM-10 membrane and then applied to a MonoS cation exchange column (1.0×10 cm) that had been equilibrated in Buffer A. The sample was loaded at a flow rate of 1 mL/min at 25° C. After washing isocratically for 30 min, the protease was eluted using a linear gradient of 0-0.45M sodium chloride in Buffer A over 40 min. The column was washed isocratically in Buffer A containing 0.45M sodium chloride for 30 min.
The active fractions were combined and concentrated to 200 μL using an Amicon stirred cell and a YM-10 membrane and then the protease was applied to a Superose 6 size exclusion column equilibrated in Buffer A containing 0.1M sodium chloride.
The purified peptide was labeled with a fluorescent marker at the C-terminal end for use in the Pandex assay. N^α -Biotin-[…]OH SEQ ID NO:3. (1.206 g, 0.936 mmol) was dissolved in 100 mL of 0.1M sodium borate, pH 9.5. Then, a solution of 3 g (7.7 mmol) of fluorescein isothiocyanate in 15 mL dimethyl sulfoxide was added to the reaction mixture in 10 equal portions over two hours. The resulting mixture was allowed to react for one hour after the final addition. The solution was adjusted to pH 3 using 5N hydrochloric acid, resulting in the formation of a precipitate which was removed by centrifugation.
E. Fluorescence HIV-1 Protease Inhibitor Assay
The following buffers and solutions are used in the Fluorescence HIV-1 Protease Inhibitor Assay:
MES-ALB Buffer: 0.05M 4-morpholineethane
Avidin Coated 0.1% solution of Fluoricon
Beads Solution: Avidin Assay Particles
(Avidin conjugated to solid
polystyrene beads, 0.6-0.8
microns in diameter in TBSA
27 IU/mL of purified HIV-1
protease in MES-ALB buffer
(1 IU equals the amount of
enzyme required to hydrolyze
1 μmole of substrate per
To each well of a round bottom, 96-well plate is added 20 μL of the Enzyme Solution followed by 10 μL of the compound to be evaluated in a 20% aqueous dimethylsulfoxide solution. Purified HIV-1 protease was obtained as described above.

With `CC(C)(C)NC(=O)c1ccccc1C[C@@H](O)[C@H](Cc1ccccc1)NC(=O)[C@@H](CC(=O)NCc1ccccc1)NS(C)(=O)=O` [Example 10, [2R-(2R*, 3S*, 6R*)]-N-t-butyl-2-[2-hydroxy-3-phenylmethyl-4-aza-5-oxo-6-N(methylsulfonyl)amino-8-oxo-8-N(benzyl)amino]octyl benzamide], the IC50 was 4.34 nM. For the compound `CC(=O)N[C@@H](CSc1ccccc1)C(=O)N[C@@H](Cc1ccccc1)[C@H](O)Cc1ccccc1C(=O)NC(C)(C)C` [Example 20B, [2R-(2R*,3S*,6R*)]-N-t-Butyl-2-[2-hydroxy-3-phenylmethyl-4-aza-5-oxo-6-N(ethanoyl)amino-7-phenylthio]heptyl benzamide], the IC8 amounted to 1 µg/mL. For `CC(=O)N[C@H](Cc1ccccc1)C(=O)N[C@@H](Cc1ccccc1)[C@H](O)Cc1ccccc1C(=O)NC(C)(C)C` [Example 26, [2R-(2R*,3S*,6R*)]-N-t-Butyl-2-[2-hydroxy-3-phenylmethyl-4-aza-5-oxo-6-N-(ethanoyl)amino-7-phenyl]heptyl benzamide], the IC45 came out at 1 µg/mL (≈ 1.89 µM). For “[2R-(2R*,3S*,6S*)]-N-t-Butyl-2-[2-hydroxy-3-phenylmethyl-4-aza-5-oxo-6-N(trifluoromethylcarbonyl)amino-7-naphth-2-ylthio]heptyl benzamide [Example 42]”, the “Fluorescence Assay IC50” value is 0.00074 µg/mL. Regarding `CC(C)(C)NC(=O)c1ccccc1C[C@@H](O)[C@H](Cc1ccccc1)NC(=O)[C@@H](CSc1ccc2ccccc2n1)NS(C)(=O)=O` [Example 23C, [2R-(2R*,3S*,6S*)]-N-t-Butyl-2-[2-hydroxy-3-phenylmethyl-4-aza-5-oxo-6-N(methylsulfonyl)amino-7-quinolin-2-ylthio]heptyl benzamide], the half-maximal inhibitory concentration (IC50) is 25.9 nM. Turning to `CC(C)(C)NC(=O)c1ccccc1C[C@@H](O)[C@H](Cc1ccccc1)NC(=O)[C@@H](CC(=O)OCc1ccccc1)NS(C)(=O)=O` [Example 8A, [2R-(2R*,3S*, 6R*)]-N-t-butyl-2-[2-hydroxy-3-phenylmethyl-4-aza-5-oxo-6-N(methylsulfonyl)amino-7-benzyloxycarbonyl]heptyl benzamide], the IC50 is 3.69 nM. `CC(C)(C)NC(=O)c1ccccc1C[C@@H](O)[C@H](Cc1ccccc1)NC(=O)[C@H](CC(N)=O)NS(=O)(=O)c1cccc2ccccc12` [Example 33, [2R-(2R*,3S*,6S*)]-N-t-Butyl-2-[2-hydroxy-3-phenylmethyl-4-aza-5-oxo-6-N (naphth-1-ylsulfonyl)amino-7-carbamoyl]heptyl benzamide]: the IC50 is 68.2 nM.

Turning to `CC(C)(C)NC(=O)c1ccccc1C[C@@H](O)[C@H](Cc1ccccc1)NC(=O)[C@@H](C[S+]([O-])c1ccccc1)NS(C)(=O)=O` (stereo partly drawn) [Example 22E, [2R-(2R*,3S*,6S*)]-N-t-Butyl-2-[2-hydroxy-3-phenylmethyl-4-aza-5-oxo-6-N(methylsulfonyl)amino-7-phenylsulfinyl]heptyl benzamide], the IC50 is 0.978 nM.

Regarding `CC(C)(C)NC(=O)c1ccccc1C[C@@H](O)[C@H](Cc1ccccc1)NC(=O)[C@@H](CC(=O)Nc1ccc2ccccc2n1)NS(C)(=O)=O` [Example 9, [2R-(2R*, 3S*, 6R*)]-N-t-butyl-2-[2-hydroxy-3-phenylmethyl-4-aza-5-oxo-6-N-(methylsulphonyl)amino-8-oxo-8-N (quinolin-2-yl)amino]octyl benzamide], the IC50 is 13.6 nM. Take `Cn1nnnc1SC[C@@H](NC(=O)OC(C)(C)C)C(=O)N[C@@H](Cc1ccccc1)[C@H](O)Cc1ccccc1C(=O)NC(C)(C)C` [Example 39A, [2R-(2R*,3S*,6S*)]-N-t-Butyl-2-[2-hydroxy-3-phenylmethyl-4-aza-5-oxo-6-N(t-butoxycarbonyl)amino-7-N-(methyl)tetrazolylthio]heptyl benzamide]: the half-maximal inhibitory concentration (IC50) was greater than 1600 nM. Take `CC(C)(C)NC(=O)c1ccccc1C[C@@H](O)[C@H](Cc1ccccc1)NC(=O)[C@H](Cc1ccccc1)NC=O` [Example 40]: the IC8 was found to be 1 µg/mL. For the compound `CC(=O)N[C@H](C[S+]([O-])c1ccc2ccccc2n1)C(=O)N[C@@H](Cc1ccccc1)[C@H](O)Cc1ccccc1C(=O)NC(C)(C)C` (stereo partly drawn) [Example 24B, [2R-(2R*,3S*,6S*)]-N-t-Butyl-2-[2-hydroxy-3-phenylmethyl-4-aza-5-oxo-6-N(ethanoyl)amino-7-quinolin-2-ylsulfinyl]heptyl benzamide], the 50% inhibitory concentration (IC50) was 0.207 nM. `CC(C)(C)NC(=O)c1ccccc1C[C@@H](O)[C@H](Cc1ccccc1)NC(=O)[C@H](N)CSc1ccc(F)cc1` [Example 37B, [2R-(2R*,3S*,6S*)]-N-t-Butyl-2-[2-hydroxy-3-phenylmethyl-4-aza-5-oxo-6-amino-7-(p-fluorophenylthio)]heptyl benzamide]: the IC50 was 5330 nM. As for `CC(C)(C)NC(=O)c1ccccc1C[C@@H](O)[C@H](Cc1ccccc1)NC(=O)[C@@H](C[S+]([O-])Cc1ccccc1)NS(C)(=O)=O` (stereo partly drawn) [Example 19D, [2R-(2R*,3S*,6S*)]-N-t-Butyl-2-[2-hydroxy-3-phenylmethyl-4-aza-5-oxo-6-N(methylsulfonyl)amine-7-benzylsulfinyl]heptyl benzamide], the IC50 is 2.23 nM. Same read-out and setting: next, `CC(C)(C)NC(=O)c1ccccc1C[C@@H](O)[C@H](Cc1ccccc1)NC(=O)[C@@H](CC(=O)NCc1ccc2ccccc2n1)NS(C)(=O)=O` [Example 11, [2R-(2R*, 3S*, 6R)]-N-t-butyl-2-[2-hydroxy-3-phenylmethyl-4-aza-5-oxo-6-N(methylsulfonyl)amino-8-oxo-9-aza-10-quinolin-2-yl]decyl benzamide]: 2.52 nM.

Consider `CSCC[C@H](NC(C)=O)C(=O)N[C@@H](Cc1ccccc1)[C@H](O)Cc1ccccc1C(=O)NC(C)(C)C` [Example 21, [2R-(2R*,3S*,6S*)]-N-t-Butyl-2-[2-hydroxy-3-phenylmethyl-4-aza-5-oxo-6-N(ethanoyl)amino-8-methylthio]octyl benzamide], for which the IC45 worked out at 1 µg/mL (≈ 1.95 µM). With `CC(C)(C)NC(=O)c1ccccc1C[C@@H](O)[C@H](Cc1ccccc1)NC(=O)[C@@H](CSc1ccccc1)NS(C)(=O)=O` [Example 22C, [2R-(2R*,3S*,6S*)]-N-t-Butyl-2-[2-hydroxy-3-phenylmethyl-4-aza-5-oxo-6-N(methylsulfonyl)amino-7-phenylthio]heptyl benzamide], the concentration for half-maximal inhibition (IC50) was 18.9 nM.

Regarding `CN(C)S(=O)(=O)N[C@H](CC(=O)OCc1ccccc1)C(=O)N[C@@H](Cc1ccccc1)[C@H](O)Cc1ccccc1C(=O)NC(C)(C)C` [Example 5, [2R-(2R*, 3S *, 6R*)]-N-t-butyl-2-[2-hydroxy-3-phenylmethyl-4-aza-5-oxo-6-N(dimethylaminosulfonyl)amino-7-benzyloxycarbonyl]heptyl benzamide], the IC50 is 8.58 nM. On to `CC(C)(C)NC(=O)c1ccccc1C[C@@H](O)[C@H](Cc1ccccc1)NC(=O)[C@@H](COCc1ccccc1)NS(C)(=O)=O` [Example 14, [2R-(2R*, 3S*, 6R*)]-N-t-Butyl-2-[2-hydroxy-3-phenylmethyl-4-aza-5-oxo-6-N (methylsulfonyl)amino-7-benzyloxy]heptyl benzamide], for which the half-maximal inhibitory concentration (IC50) is 43.6 nM. Consider `Cn1nnnc1[S+]([O-])C[C@@H](NS(C)(=O)=O)C(=O)N[C@@H](Cc1ccccc1)[C@H](O)Cc1ccccc1C(=O)NC(C)(C)C` (stereo partly drawn) [Example 39D, [2R-(2R*,3S*,6S*)]-N-t-Butyl-2-[2-hydroxy-3-phenylmethyl-4-aza-5-oxo-6-N(methylsulfonyl)amino-7-N-(methyl)tetrazolylsulfinyl)]heptyl benzamide], for which the IC50 is 1.4 nM.
